Experimental data from ChEMBL document CHEMBL5252521, “Discovery and development of kibdelomycin, a new class of broad-spectrum antibiotics targeting the clinically proven bacterial type II topoisomerase” (Bioorg Med Chem, 2016).
Converted amounts (≈) assume the structure as drawn.

Columns and labels:
Escherichia coli [1] = test: Antibacterial activity against wild type Escherichia coli; type: functional
Staphylococcus aureus [2] = test: Antibacterial activity against wild type Staphylococcus aureus; type: functional
DNA gyrase [3] = biological target: DNA gyrase (Escherichia coli, UniProt P0AES4+P0AES6); test: Inhibition of Escherichia coli DNA gyrase supercoiling activity; type: protein-complex assay
Topoisomerase IV = Topoisomerase IV (Staphylococcus aureus, UniProt P0C1S7+P0C1U9); test: Inhibition of Staphylococcus aureus DNA topoisomerase 4 decatenation activity; type: protein-complex assay
Topoisomerase IV, sequence (P0C1U9 whole entry): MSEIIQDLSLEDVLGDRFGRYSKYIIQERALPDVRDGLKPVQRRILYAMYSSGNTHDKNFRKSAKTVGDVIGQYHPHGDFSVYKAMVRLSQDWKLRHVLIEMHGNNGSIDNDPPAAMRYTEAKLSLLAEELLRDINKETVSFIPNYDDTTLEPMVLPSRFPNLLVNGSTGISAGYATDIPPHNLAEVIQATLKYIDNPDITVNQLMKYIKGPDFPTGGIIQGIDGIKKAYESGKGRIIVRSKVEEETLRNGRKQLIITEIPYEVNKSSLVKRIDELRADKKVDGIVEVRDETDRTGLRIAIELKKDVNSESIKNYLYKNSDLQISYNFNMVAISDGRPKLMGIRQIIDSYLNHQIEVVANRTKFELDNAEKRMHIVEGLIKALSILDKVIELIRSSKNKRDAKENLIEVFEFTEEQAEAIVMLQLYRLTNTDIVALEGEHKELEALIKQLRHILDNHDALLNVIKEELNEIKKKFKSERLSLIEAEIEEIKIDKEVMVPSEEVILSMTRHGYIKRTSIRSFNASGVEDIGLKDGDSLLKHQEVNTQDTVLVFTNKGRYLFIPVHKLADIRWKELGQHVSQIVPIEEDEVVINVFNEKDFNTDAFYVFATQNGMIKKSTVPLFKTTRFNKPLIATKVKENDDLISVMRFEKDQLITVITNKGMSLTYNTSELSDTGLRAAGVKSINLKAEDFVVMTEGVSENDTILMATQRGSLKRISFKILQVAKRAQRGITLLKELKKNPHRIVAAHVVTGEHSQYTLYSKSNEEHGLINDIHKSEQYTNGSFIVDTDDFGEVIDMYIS
Topoisomerase IV, sequence (P0C1S7 whole entry): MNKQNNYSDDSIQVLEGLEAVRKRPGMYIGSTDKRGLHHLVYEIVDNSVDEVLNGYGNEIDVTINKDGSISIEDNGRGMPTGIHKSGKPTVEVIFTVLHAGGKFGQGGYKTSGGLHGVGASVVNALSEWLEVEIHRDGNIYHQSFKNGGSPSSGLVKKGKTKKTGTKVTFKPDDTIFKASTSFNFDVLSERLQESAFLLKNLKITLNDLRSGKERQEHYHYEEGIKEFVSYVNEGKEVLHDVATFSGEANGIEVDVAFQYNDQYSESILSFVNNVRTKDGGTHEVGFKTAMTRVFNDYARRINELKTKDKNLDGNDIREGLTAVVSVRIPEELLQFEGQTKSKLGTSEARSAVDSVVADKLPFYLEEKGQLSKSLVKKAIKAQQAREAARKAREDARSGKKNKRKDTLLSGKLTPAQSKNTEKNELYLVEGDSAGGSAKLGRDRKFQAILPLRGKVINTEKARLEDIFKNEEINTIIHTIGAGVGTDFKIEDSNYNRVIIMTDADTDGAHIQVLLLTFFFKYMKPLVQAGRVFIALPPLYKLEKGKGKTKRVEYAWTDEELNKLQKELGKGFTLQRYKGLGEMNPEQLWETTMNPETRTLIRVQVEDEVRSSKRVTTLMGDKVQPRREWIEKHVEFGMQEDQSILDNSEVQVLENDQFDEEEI

[4] = Inhibition of Escherichia coli DNA topoisomerase 4 decatenation activity
Streptococcus pneumoniae [5] = test: Antibacterial activity against wild type Streptococcus pneumoniae in presence of 2.5% lysed horse blood; type: functional
DNA gyrase [6] = biological target: DNA gyrase (Staphylococcus aureus, UniProt P0A0K8+P20831); test: Inhibition of Staphylococcus aureus DNA gyrase supercoiling activity; type: protein-complex assay
DNA gyrase (Staphylococcus aureus, UniProt P0A0K8+P20831), sequence (P0A0K8 whole entry): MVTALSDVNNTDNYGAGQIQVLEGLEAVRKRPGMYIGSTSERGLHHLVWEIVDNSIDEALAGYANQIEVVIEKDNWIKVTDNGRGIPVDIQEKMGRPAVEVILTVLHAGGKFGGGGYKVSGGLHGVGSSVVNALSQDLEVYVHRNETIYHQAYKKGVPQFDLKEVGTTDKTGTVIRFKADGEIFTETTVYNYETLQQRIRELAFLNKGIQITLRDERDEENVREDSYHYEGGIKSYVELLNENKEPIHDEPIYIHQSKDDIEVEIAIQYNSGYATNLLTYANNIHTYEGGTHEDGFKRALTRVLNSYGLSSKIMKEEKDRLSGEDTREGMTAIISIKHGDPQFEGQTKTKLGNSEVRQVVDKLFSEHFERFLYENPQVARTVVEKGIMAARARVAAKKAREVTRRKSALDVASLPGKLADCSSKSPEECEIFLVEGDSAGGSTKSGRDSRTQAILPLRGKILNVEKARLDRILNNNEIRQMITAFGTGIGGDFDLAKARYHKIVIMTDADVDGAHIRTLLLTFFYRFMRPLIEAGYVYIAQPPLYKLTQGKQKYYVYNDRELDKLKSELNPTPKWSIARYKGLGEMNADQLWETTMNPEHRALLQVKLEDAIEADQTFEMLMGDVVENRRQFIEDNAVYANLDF
DNA gyrase (Staphylococcus aureus, UniProt P0A0K8+P20831), sequence (P20831 whole entry): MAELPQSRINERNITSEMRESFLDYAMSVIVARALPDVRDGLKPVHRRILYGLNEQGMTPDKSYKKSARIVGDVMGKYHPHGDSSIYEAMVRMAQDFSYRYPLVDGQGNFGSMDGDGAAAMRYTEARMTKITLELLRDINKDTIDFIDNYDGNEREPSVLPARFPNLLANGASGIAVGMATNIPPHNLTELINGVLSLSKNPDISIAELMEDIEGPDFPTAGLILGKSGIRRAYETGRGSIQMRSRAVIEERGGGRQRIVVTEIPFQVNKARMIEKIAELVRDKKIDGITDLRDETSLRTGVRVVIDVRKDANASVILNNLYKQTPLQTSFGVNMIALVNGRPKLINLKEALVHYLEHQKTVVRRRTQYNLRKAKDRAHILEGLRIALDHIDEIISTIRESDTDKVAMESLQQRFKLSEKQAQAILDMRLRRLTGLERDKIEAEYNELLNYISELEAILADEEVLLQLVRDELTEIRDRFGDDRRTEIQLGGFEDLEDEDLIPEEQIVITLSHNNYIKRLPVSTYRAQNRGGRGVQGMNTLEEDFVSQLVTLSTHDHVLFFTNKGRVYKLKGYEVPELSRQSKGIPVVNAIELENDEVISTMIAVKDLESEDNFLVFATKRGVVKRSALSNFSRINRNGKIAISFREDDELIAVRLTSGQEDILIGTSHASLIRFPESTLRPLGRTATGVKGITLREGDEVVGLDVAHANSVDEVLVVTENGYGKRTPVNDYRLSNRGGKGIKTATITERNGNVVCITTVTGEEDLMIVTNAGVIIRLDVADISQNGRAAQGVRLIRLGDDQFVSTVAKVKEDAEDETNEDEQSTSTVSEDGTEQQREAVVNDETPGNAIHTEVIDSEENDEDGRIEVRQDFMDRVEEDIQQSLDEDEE

Pseudomonas aeruginosa [7] = test: Antibacterial activity against wild type Pseudomonas aeruginosa; type: functional
Enterococcus faecium = test: Antibacterial activity against vancomycin-resistant Enterococcus faecium incubated for 20 hrs by two-fold serial dilution method; type: functional
Acinetobacter baumannii = test: Antibacterial activity against wild type Acinetobacter baumannii incubated for 20 hrs by two-fold serial dilution method; type: functional
Pseudomonas aeruginosa [8] = test: Antibacterial activity against wild type Pseudomonas aeruginosa incubated for 20 hrs by two-fold serial dilution method; type: functional
Escherichia coli [9] = test: Antibacterial activity against wild type Escherichia coli incubated for 20 hrs by two-fold serial dilution method; type: functional
Staphylococcus aureus [10] = test: Antibacterial activity against wild type Staphylococcus aureus incubated for 20 hrs by two-fold serial dilution method; type: functional
Haemophilus influenzae = test: Antibacterial activity against wild type Haemophilus influenzae incubated for 20 hrs by two-fold serial dilution method; type: functional
Moraxella catarrhalis = test: Antibacterial activity against wild type Moraxella catarrhalis incubated for 20 hrs by two-fold serial dilution method; type: functional
Staphylococcus aureus [11] = test: Antibacterial activity against methicillin-resistant Staphylococcus aureus incubated for 20 hrs by two-fold serial dilution method; type: functional
Streptococcus pneumoniae [12] = test: Antibacterial activity against wild type Streptococcus pneumoniae incubated for 20 hrs in presence of 2.5% lysed horse blood by two-fold serial dilution method; type: functional
Staphylococcus aureus [13] = test: Antibacterial activity against wild type Staphylococcus aureus incubated for 20 hrs in presence of 50% of human serum by two-fold serial dilution method; type: functional
[14] = Inhibition of Escherichia coli DNA topoisomerase 4 ATPase activity
Enterococcus faecalis = test: Antibacterial activity against wild type Enterococcus faecalis incubated for 20 hrs by two-fold serial dilution method; type: functional

| SMILES | MIC (Escherichia coli [1]) | MIC (Staphylococcus aureus [2]) | IC50 (DNA gyrase [3]) | IC50 (Topoisomerase IV) | IC50 [4] | MIC (Streptococcus pneumoniae [5]) | IC50 (DNA gyrase [6]) | MIC (Pseudomonas aeruginosa [7]) | MIC (Enterococcus faecium) | MIC (Acinetobacter baumannii) | MIC (Pseudomonas aeruginosa [8]) | MIC (Escherichia coli [9]) | MIC (Staphylococcus aureus [10]) | MIC (Haemophilus influenzae) | MIC (Moraxella catarrhalis) | MIC (Staphylococcus aureus [11]) | MIC (Streptococcus pneumoniae [12]) | MIC (Staphylococcus aureus [13]) | IC50 [14] | MIC (Enterococcus faecalis) |
| --- | --- | --- | --- | --- | --- | --- | --- | --- | --- | --- | --- | --- | --- | --- | --- | --- | --- | --- | --- | --- |
| Cc1c(O)cc(O)c2c1C(=O)OC[C@H](NC(=O)[C@@H]1[C@H](O)CCN1C(=O)[C@@H](N)CO)C(=O)N[C@H](C(=O)N[C@@H](C)C(=O)O)CSC2 | > 128 µg/mL | > 128 µg/mL | 0.05 µM | – | – | – | – | – | – | – | – | – | – | – | – | – | – | – | – | – |
| CO[C@@H]1[C@@H](OC(=O)c2ccc(C)[nH]2)[C@@H](O)[C@H](Oc2ccc3c(O)c(NC(=O)c4c[nH]c(C(=O)Nc5c(O)c6ccc(O[C@@H]7OC(C)(C)[C@H](OC)[C@@H](OC(=O)c8ccc(C)[nH]8)[C@H]7O)c(C)c6oc5=O)c4C)c(=O)oc3c2C)OC1(C)C | 6.25 µg/mL (≈ 5.63 µM) | 0.0012 µg/mL (≈ 0.00108 µM) | 0.03 µM | 100 µM | 5 µM | 0.78 µg/mL | 0.006 µM | 12.5 µg/mL (≈ 11.3 µM) | – | – | – | – | – | – | – | – | – | – | – | – |
| CO[C@@H]1[C@@H](OC(=O)c2ccc(C)[nH]2)[C@@H](O)[C@H](Oc2ccc3c(O)c(NC(=O)c4ccc(O)c(CC=C(C)C)c4)c(=O)oc3c2Cl)OC1(C)C [CHLOROBIOCIN] | – | < 0.06 µg/mL | – | 10 µM | 3 µM | 2 µg/mL | – | – | – | – | – | – | – | – | – | – | – | – | – | – |
| C[C@H]1COc2c(N3CCN(C)CC3)c(F)cc3c(=O)c(C(=O)O)cn1c23.C[C@H]1COc2c(N3CCN(C)CC3)c(F)cc3c(=O)c(C(=O)O)cn1c23.O [LEVOFLOXACIN] | – | – | – | – | – | – | – | – | 4 µg/mL | 0.125 µg/mL | 0.5 µg/mL | 0.031 µg/mL | 0.125 µg/mL | < 0.015 µg/mL | 1 µg/mL | 32 µg/mL | – | – | – | – |
| CO[C@@H]1[C@@H](OC(N)=O)[C@@H](O)[C@H](Oc2ccc3c(O)c(NC(=O)c4ccc(O)c(CC=C(C)C)c4)c(=O)oc3c2C)OC1(C)C [NOVOBIOCIN] | – | – | – | 35 µM | 10 µM | – | – | – | – | – | 100 µg/mL (≈ 163 µM) | > 32 µg/mL | 0.25 µg/mL (≈ 0.408 µM) | 0.12 µg/mL (≈ 0.196 µM) | > 32 µg/mL | 0.06 µg/mL (≈ 0.0979 µM) | 1 µg/mL | 16 µg/mL | 0.45 µM | 32 µg/mL (≈ 52.2 µM) |
